Laboratory results published in US20250115628A1, “FLUORINATED FLUOROPHORES” (HOWARD HUGHES MEDICAL INSTITUTE, priority 2023, published 2025).

Legend:
HaloTag® protein = biological target: T1, HaloTag® protein (Rhodococcus rhodochrous, UniProt P0A3G2, A155T/A167V/A172T/A224E/C128F/C176G/D78G/E160K/E257K/H272N/K175M/K195N/L47V/L88M/N227D/P291S/S2A/S58T/T264A/Y273L/Y87F); assay: Absorption increase of ligands on binding HaloTag® protein; type: biochemical
T1 construct: 6xHis; made in house; host or cells: bacterial expression (pRSET-A vector, Invitrogen)
Method: The bacterial expression vector pRSET-A (Invitrogen) was used to recombinantly express HaloTag® (HT7; Promega).^7 The soluble 6×His-Tagged HaloTag® protein was affinity purified by immobilized metal affinity chromatography (IMAC) on a 5^−mL Fast Flow HiTrap Sepharose 6 column (Cytiva) with a 0-200 mM imidazole elution gradient using an ÄKTA Avant Protein Purification System (Cytiva).
HaloTag® protein was used as a […] solution in 1× TBS. Absorption measurements were performed in 1.4^−mL semi-micro quartz cuvettes. A […] solution of HaloTag® ligand 65HTL or 91HTL was prepared in 10 mM HEPES, pH 7.3 containing 0.1 mg mL-1 CHAPS. An aliquot of HaloTag® protein (2 equiv, […] [HaloTag®]) was added. To examine chromogenicty (FIG. 5B, left panel), the resulting mixture was incubated until a consistent absorption signal/spectrum was observed (<60 min for 65HTL); an equivalent volume of 1× TBS blank was added to separate “−HT” samples in place of enzyme to record the ligand-only absorption. Spectra are averages (n=2). To compare rates of HaloTag® labeling (FIG. 5B, right panel) absorption at λabs (645 nm for 65HTL, 621 nm for 91HTL) was recorded at regular intervals (0.1 min, 0-5 min; 1 min, 5-120 min; 5 min, 2-24 h) immediately following addition of HaloTag® protein.

[1] = test system: U2OS cells stably expressing HaloTag®-histone H2B fusion protein; assay: Loading experiments using ligands 65HTL and 91HTL (JF552-HaloTag® ligand chase); type: cell-based; conditions: 200 nM, 0-4 h
Method: U2OS cells (ATCC) and U2OS cells stably expressing an integrated HaloTag®-histone H2B fusion protein (U2OS·H2B·HaloTag®) were cultured in Dulbecco's modified Eagle medium (DMEM, phenol red-free; Life Technologies) supplemented with 10% (v/v) fetal bovine serum (FBS, Life Technologies), 1 mM GlutaMAX (Life Technologies) and maintained at 37° C. in a humidified 5% (v/v) CO2 environment. These cell lines undergo regular mycoplasma testing by the Janelia Cell Culture Facility. For mitochondrial imaging using the HaloTag® system, U2OS cells were transiently transfected using nucleofection (Lonza) with a plasmid constitutively expressing a HaloTag®-TOMM20 fusion protein, which is located on the outer mitochondrial membrane. […]
For loading curve experiments, U2OS·H2B·HaloTag® stable cells were incubated with 200 nM 65HTL and 91HTL for 0-4 h at 37° C., washed 3× with dye-free media then chased with 200 nM JF552-HaloTag® ligand 15 for 30 min at 37° C., washed 3× with dye-free media and fixed with 4% paraformaldehyde in 0.1 M phosphate buffer, pH 7.4 for 15 min at 37° C. […] Fluorescence was quantified as the integrated density of nuclear signals from confocal image stack projections analyzed in FIJI;^82 n=100 nuclear signals per compound.

[2] = test system: ScAMPI (SNAP-tag®-Epac1-HaloTag®) expressed in U2OS cells; assay: cAMP FLIM-FRET sensor ScAMPI (fluorescence lifetime imaging); type: cell-based
Excerpt: The Epac-based cAMP sensor “Epac-S^H189”, was obtained from Addgene (Plasmid #170348). This sensor consists of a mTurquoise fluorescent protein and a tdDark Venus protein linked via the Epac1 protein.
To construct the SNAP-tag®-Epac1-HaloTag® sensor, the sequence encoding the tdDark Venus domain in Epac-S^H189 was first replaced with the HaloTag® sequence using Nhe1 and Asc1 fragment ligation (NEB), creating a construct with mTurquoise and HaloTag® flanking the Epac1 domain (i.e, mTurquoise-Epac1-HaloTag®). […]
To evaluate this semisynthetic system in cells, U2OS cells (ATCC) were maintained in DMEM (Corning) containing 10% v/v FBS (ATCC), 1% v/v L-glutamine (Gibco) and 1% v/v Pen/Strep (Gibco). […] Fluorescence lifetime imaging was performed with a Leica SP8 Falcon using LASX software for image acquisition and analysis. […] Fluorescence emission was collected by the HyD detector. […] Mean amplitude weighted lifetime image (τmean) was calculated by fixing the two lifetimes and performing an image fit for their respective amplitudes (a1 and a2). FRET efficiency was calculated using the mean lifetime obtained in absence (τmean,-forskolin) and (τmean,+forskolin) presence of forskolin as 1^−(τmean,-forskolin/τmean,+forskolin).

T1 sequence (P0A3G2 other isoform, or with tags, fused parts or gaps with the stated changes): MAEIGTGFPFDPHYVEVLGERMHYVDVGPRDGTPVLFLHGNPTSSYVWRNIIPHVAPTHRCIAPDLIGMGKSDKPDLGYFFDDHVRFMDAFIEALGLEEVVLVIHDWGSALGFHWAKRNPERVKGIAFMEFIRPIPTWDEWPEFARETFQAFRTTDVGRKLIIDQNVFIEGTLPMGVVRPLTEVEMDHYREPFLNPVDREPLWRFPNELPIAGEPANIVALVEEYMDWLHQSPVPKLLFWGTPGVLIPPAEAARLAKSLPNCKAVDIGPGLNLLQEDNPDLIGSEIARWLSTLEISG

For `C=C/C=C(C=C)/[N+](C)=C1\C=CC2=C(c3c(F)c(C(=O)NCCOCCOCCCCCCCl)c(F)c(F)c3C(=O)[O-])c3ccc(N(C)c4ccccc4)cc3C(C)(C)C2=C1` [65HTL, JQ645-HaloTag® ligand], the “HaloTag® labeling in vitro compared with 91HTL” value (HaloTag® protein; absorbance vs. time upon addition to HaloTag® protein) was “substantially faster”, the “ε of HaloTag® conjugate” value (HaloTag® protein; after incubation with HaloTag® protein) was 110,000 M^−1 cm^−1 and the “λabs used for HaloTag® labeling read-out” value (HaloTag® protein; ligand in 10 mM HEPES, pH 7.3 with CHAPS, HaloTag® protein added) was 645 nm. The “increase in absorptivity on incubation with HaloTag® protein” value (HaloTag® protein; ligand with 2 equiv HaloTag® protein, 10 mM HEPES, pH 7.3) was 47 fold, the “HaloTag® labeling in cells compared with 91HTL” value [1] was “substantially faster” and the “FRET quenching of the JFX612 donor” value [2] was “effective FRET quencher”.
